Broadly, the pKi is the negative decadic logarithm of the Ki, by convention in mol/L. Read a high pKi as a low Ki. One may read the Ki as a dissociation constant, usually derived from enzyme kinetics or from competition with a known ligand.

Consider six molecules from patent US10744104B2, “Neprilysin inhibitors” (THERAVANCE BIOPHARMA R&D IP, LLC, priority 2011, dated 2020).

SMILES strings stand for the structures. A value given as a limit tells only on which side of the number the result lay.

Experiment [1] concerns the target T1, NEP (Homo sapiens (Human), UniProt P08473). Nature of the experiment: Assay 1: in vitro enzyme inhibition assay at human NEP (fluorogenic peptide substrate). To be noted: for pKi: comparative examples, exact values. The class given is biochemical.
Experimental: The assays were performed in 384-well white opaque plates at 37° C. using the fluorogenic peptide substrates at a concentration of 10 μM in Assay Buffer (NEP: 50 mM HEPES, pH 7.5, 100 mM NaCl, 0.01% polyethylene glycol sorbitan monolaurate (Tween-20), 10 μM ZnSO4; ACE: 50 mM HEPES, pH 7.5, 100 mM NaCl, 0.01% Tween-20, 1 μM ZnSO4).
Test compounds were assayed over the range of concentrations from 10 μM to 20 pM. Test compounds were added to the enzymes and incubated for 30 minute at 37° C. prior to initiating the reaction by the addition of substrate. Reactions were terminated after 20 minutes of incubation at 37° C. by the addition of glacial acetic acid to a final concentration of 3.6% (v/v).
Inhibition constants were obtained by nonlinear regression of the data using the equation (GraphPad Software, Inc., San Diego, Calif.): v=v0/[1+(I/K′)] where v is the reaction rate, v0 is the uninhibited reaction rate, I is the inhibitor concentration and K′ is the apparent inhibition constant.
Experiment [2] addresses T1, NEP. The following applies: change of carboxylic acid chain length versus succinic acid compound 21a; cited from earlier work.

On to `O=C(O)CCCC(=O)N[C@H](Cc1ccc(-c2ccccc2)cc1)CC(O)C(=O)O` (stereo partly drawn) [Comparative Compound E, (R)-5-Biphenyl-4-yl-4-(4-carboxybutrylamino)-2-hydroxypentanoic Acid], for which the pKi on NEP [1] was determined as 7.3.

As for `O=C(O)CCCC(=O)N[C@H](Cc1ccc(-c2ccccc2)cc1)C[C@@H](CO)C(=O)O` [Comparative Compound H, (2S,4S)-5-Biphenyl-4-yl-4-(4-carboxy-butyrylamino)-2-hydroxmethylpentanoic Acid], on NEP [1], the pKi is 8.6.

On NEP [1] (reported as ranges), `O=C(N[C@H](Cc1ccc(-c2cccc(Cl)c2)cc1)C[C@@H](O)C(=O)O)C(=O)OCCC(F)(F)F` [Example 2N, (2R,4R)-5-(3′-Chlorobiphenyl-4-yl)-2-hydroxy-4-[(3,3,3-trifluoropropoxyoxalyl)-amino]pentanoic Acid] gave a Ki not above 1 nM.

On to `C[C@H](C[C@@H](Cc1ccc(-c2ccccc2)cc1)NC(=O)CCCC(=O)O)C(=O)O` [Example 21e], for which, at NEP [2], the “decrease in activity relative to 21a” value is 18 fold.

`C[C@H](C[C@@H](Cc1ccc(-c2ccccc2)cc1)NC(=O)CCCCC(=O)O)C(=O)O` [Example 21f]: the “decrease in activity relative to 21a” value at NEP [2] is 65 fold.

Regarding `C[C@H](CC(Cc1ccc(-c2ccccc2)cc1)NC(=O)CC(=O)O)C(=O)O` (stereo partly drawn) [Example 21g], the “decrease in activity relative to 21a” value on NEP [2] is on record as 18 fold.
